Several values for one entry are separate records, joined by “and”; a condition that tells them apart may be missing. Equal entries are not always repeated.
Key:
Format in all cases: functional, Homo sapiens
Design in all cases: dose or concentration left out as unconfirmed
Colon cancer organoid [1] = test: (§1) Image-based profiling of donated chemical probes and chemogenomic kinase set in O21 CRC organoid. Image analysis is performed on the sum area metric, and the data were normalized to the DMSO control. After imaging the organoid viability is measured using the OneGloEX Luciferase Assay System. The normalized viability data and sum area are reported.
Colon cancer organoid [2] = test: as §1, with “O06” for “O21”
Colon cancer organoid [3] = test: as §1, with “O09” for “O21”

SMILES | Cell Viability (Colon cancer organoid [1]; Replication number 1) | Cell Viability (Colon cancer organoid [1]; Replication number 2) | Cell Viability (Colon cancer organoid [2]; Replication number 1) | Cell Viability (Colon cancer organoid [2]; Replication number 2) | Cell Viability (Colon cancer organoid [3]; Replication number 1) | Cell Viability (Colon cancer organoid [3]; Replication number 2)
O[C@H]1CC[C@H](Nc2ncc3nc(Nc4c(F)cc(F)cc4F)n([C@H]4CCOC4)c3n2)CC1 [TANZISERTIB] | 99.1681% and 86.9686% | 119.868% and 95.5739% | 85.5595% and 88.3572% | 111.493% and 110.437% | 161.464% and 97.9897% | 183.086% and 108.79%
O=C(c1ccc(C(=O)N2CCC(N3CCCC3)CC2)c(Nc2ccccc2)c1)N1CCC(N2CCCC2)CC1 | 116.035% and 118.746% | 94.3605% and 99.3437% | 185.477% and 131.195% | 168.44% and 129.527% | 81.7706% and 92.0402% | 143.807% and 112.037%
Cc1cc(F)c(C(=O)Nc2cccc(-c3nncn3C(C)C)n2)cc1-n1cnc(C2CC2)c1 [SELONSERTIB] | 96.1672% and 86.9686% | 76.8515% and 83.4833% | 102.175% and 96.1469% | 88.4921% and 93.9846% | 115.111% and 84.0268% | 104.846% and 82.0651%
COc1cc2c(cc1-c1c(C)noc1C)ncc1[nH]c(=O)n([C@H](C)c3ccccn3)c12 | 88.6726% and 67.015% | 110.558% and 99.8807% | 37.8038% and 58.2282% | 43.3272% and 66.9145% | 51.0073% and 39.6445% | 53.9016% and 48.1786%
CC(=O)c1cc(-c2cc(C(=O)NC3CC3)ccc2C)c2ncccn12 | 100.074% and 118.158% | 94.4985% and 97.1957% | 115.093% and 116.94% | 131.559% and 119.251% | 163.828% and 97.8362% | 113.773% and 107.19%
CCCOc1ccn2c(C(C)=O)cc(-c3cccc(OC)c3)c2c1 | 114.752% and 106.401% | 123.226% and 102.029% | 185.69% and 133.611% | 217.677% and 137.175% | 257.79% and 103.4% | 158.474% and 115.458%
CN([C@@H]1CCc2c(CC(=O)O)c3cc(S(C)(=O)=O)ccc3n2C1)S(=O)(=O)c1ccc(F)cc1 [CRTH2-negative-control] | 114.066% and 111.772% | 101.538% and 90.3061% | 102.982% and 101.171% | 44.9133% and 103.761% | 103.344% and 126.626% | 95.2483% and 103.103%
CC1=C(C)C(=O)C(C(C)(C)CC(=O)N(CCCCSC[C@H]2O[C@@H](n3cnc4c(N)ncnc43)[C@@H]3OC(C)(C)O[C@@H]32)Cc2cccc(-c3ccc(Cl)cc3)c2)=C(C)C1=O | 97.336% and 122.861% | 82.8638% and 97.7327% | 141.238% and 103.893% | 153.713% and 129.049% | 93.185% and 86.476% | 68.1346% and 85.8093%
Cc1c(Nc2ccc(S(=O)(=O)N3CCN(C)CC3)cc2F)nc2ccc(-c3cnn(C4CC4)c3)cn2c1=O | 111.388% and 118.746% | 91.8423% and 96.6587% | 155.776% and 116.215% | 128.897% and 94.1583% | 191.117% and 102.241% | 170.931% and 98.6379%
CC(=O)Nc1c(F)cc(C(=O)N[C@H]2CC[C@H](O)CC2)cc1O[C@@H](C)c1ccccc1 [GSK046] | 120.66% and 109.131% | 123.541% and 110.129% | 114.325% and 118.785% | 117.277% and 127.102% | 43.6665% and 86.4699% | 69.7579% and 96.7486%
Cc1sc2c(c1C)C(c1ccc(Cl)cc1)=N[C@@H](CC(=O)OC(C)(C)C)c1nnc(C)n1-2 | 79.5251% and 85.2384% | 67.4511% and 80.5489% | 19.6589% and 56.2953% | 20.5614% and 51.6198% | 38.4274% and 33.3849% | 47.2906% and 27.9949%
N#CN1CC[C@H](C(=O)Nc2nc3c(s2)CN(C(=O)CN=[N+]=[N-])CC3)C1 [8RK64] | 96.0935% and 89.4871% | 85.4285% and 89.7349% | 79.1245% and 96.1943% | 91.4374% and 108.602% | 73.5983% and 85.3445% | 74.3628% and 83.6638%
CN1C(=O)c2sccc2N(C)c2nc(Nc3ccc(S(N)(=O)=O)cc3)ncc21 | 57.1917% and 77.4913% | 65.5582% and 80.0288% | 15.9976% and 28.488% | 18.284% and 43.3933% | 28.4515% and 23.8118% | 41.5113% and 34.0138%
C[C@@H]1CCNC(=O)c2cc3ccc(C(=O)Nc4nc5ccccc5n4CCCN(C)C)cc3n21 | 69.4409% and 79.1638% | 71.3371% and 86.362% | 118.285% and 99.4853% | 110.228% and 88.2262% | 82.052% and 59.5917% | 80.614% and 53.9902%
CN(C)C(=O)c1ccc(-c2cc(C(=O)N[C@@H]3CCc4ccccc43)no2)cc1O | 107.545% and 128.739% | 101.745% and 90.2148% | 75.5057% and 77.557% | 96.6364% and 86.0329% | 44.4352% and 76.507% | 55.2789% and 66.994%
C[C@]1(O)C[C@@H](c2nc(-c3ccc4ccc(-c5ccccc5)nc4c3)c3c(N)nccn32)C1 [LINSITINIB] | 65.7988% and 93.6585% | 45.8203% and 78.3015% | 20.2503% and 50.5216% | 16.9529% and 40.5141% | 48.5771% and 41.3901% | 29.8323% and 45.6217%
C=CC(=O)Nc1ccc2[nH]c(=O)n(C3CCN(Cc4ccc(-c5ccc6c(c5)NC(=O)CO6)cc4)CC3)c2c1 [RL2578] | 100.847% and 118.952% | 88.0648% and 119.816% | 82.8871% and 90.6073% | 145.126% and 114.128% | 79.7893% and 107.853% | 131.51% and 111.42%
Cl.Cl.NC1(c2ccc(-c3nc4ccn5c(=O)[nH]nc5c4cc3-c3ccccc3)cc2)CCC1 | 81.7246% and 91.8083% | 79.6922% and 92.9418% | 82.4513% and 94.6892% | 74.7027% and 107.425% | 47.4878% and 37.8628% | 66.6317% and 37.3678%
CN1CCN(Cc2cc(NC(=O)c3ccc4c(c3)CN(c3ccccc3)CC4)cc(C(F)(F)F)c2)CC1 | 111.963% and 96.9088% | 113.098% and 109.943% | 104.972% and 109.917% | 87.5694% and 92.1973% | 73.1959% and 82.4072% | 164.971% and 111.856%
O=C(NCCN1CCOCC1)c1ccc2c(c1)C(=O)c1ccc(Nc3ccc(F)c(NC(=O)c4ccccc4)c3)cc1CC2 [FS-694] | 104.56% and 105.311% | 87.9959% and 93.3039% | 84.5729% and 99.5951% | 109.979% and 139.596% | 75.6733% and 93.7852% | 52.7357% and 85.0515%
Cn1cc(C2=C(c3cn(C4CCN(Cc5ccccn5)CC4)c4ccccc34)C(=O)NC2=O)c2ccccc21 [ENZASTAURIN] | 107.446% and 117.631% | 96.9547% and 121.483% | 30.0951% and 84.3511% | 45.1765% and 67.455% | 88.965% and 63.5811% | 82.186% and 57.4996%
O=C(N1CCS(=O)(=O)CC1)N1C[C@H](c2ccc(OC(F)(F)F)cc2)C[C@H](c2nc(C3CC3)no2)C1 [BAY-386] | 113.622% and 103.04% | 77.465% and 87.7551% | 89.0523% and 95.7845% | 109.266% and 112.289% | 89.9865% and 101.779% | 61.3549% and 77.1084%
COc1cc2c(NC3CCN(C(C)C)CC3)nc(N3CCC(F)(F)CC3)nc2cc1OCCCN1CCCC1 | 89.3609% and 142.848% | 55.1916% and 97.1957% | 71.9409% and 120.564% | 77.7589% and 98.4599% | 87.3897% and 128.439% | 117.725% and 126.861%
Cc1cnc(-c2cc(Cl)ccc2F)cc1-n1c(=O)n(CC(N)=O)c2cnccc21 [TP-008] | 94.8191% and 94.398% | 86.5351% and 93.3039% | 69.5011% and 111.741% | 79.5252% and 108.842% | 46.9462% and 85.5321% | 76.2638% and 97.3434%
CN(C)C(=O)/C(C#N)=C/c1ccc(-c2nc3cnc4[nH]ccc4c3n2C2CCCCC2)o1 | 101.13% and 96.3421% | 107.991% and 97.4755% | 174.281% and 154.216% | 123.709% and 122.376% | 104.012% and 103.69% | 101.367% and 106.659%
Cc1ccc(NC(=O)Nc2cc(C(F)(F)F)ccc2F)cc1Nc1ccc2c(c1)NC(=O)/C2=C\c1ccc[nH]1 | 103.098% and 128.078% | 94.098% and 129.212% | 171.109% and 157.262% | 144.83% and 120.438% | 128.92% and 93.5433% | 146.444% and 106.907%

— ChEMBL document CHEMBL5724558, “Image-based profiling of drug vulnerabilities in CRC organoids” (2024)
